Measured values published in patent publication US11260023B2, “Topical compositions containing rofecoxib and methods of making and using the same” (BRIORI BIOTECH, LLC, priority 2020, dated 2022).
Values joined by “and” are separate entries in the source; they are usually repeats but may differ in a detail not shown here. Identical values can stand only once.

Assay: Solubility of rofecoxib in solvent systems containing two or three solvents; synergistic or antagonist effect
Type: physicochemical
Method: The solubility of rofecoxib in solvent systems containing two or three solvents was determined. In solvent systems containing two solvents, […] of each solvent was added to 100 mg of rofecoxib. In solvent systems containing three solvents, […] of each solvent was added to 100 mg of rofecoxib. The samples were mixed using the protocol for solvent systems containing single solvents above. Serial dilutions of the rofecoxib solvent solutions were made (1:100 v:v), (1:1000 v/v), and (1:2000 v/v). Solvents without rofecoxib were diluted with methanol and used to blank a Beckman DU-7400 spectrophotometer. The absorbance of the samples was determined at a wavelength of 279.1 nm. The concentration of rofecoxib dissolved in the solvent was calculated using Beer's Law. The ability of the solvent systems to synergistically dissolve rofecoxib or antagonistically dissolve rofecoxib (reduce the ability of rofecoxib to dissolve was determined) according to the protocol below. The contribution for solubility of a single solvent in a two-mixture solution was calculated to be ½ of the calculated solubility of rofecoxib in one gram of excipient. Likewise, the contribution for solubility of a three-mixture was calculated to be ⅓ of the calculated solubility of rofecoxib in one gram of excipient. The expected solubility for a mixture is the addition of the contribution of each excipient. […] The percent change between the expected solubility and actual solubility was determined. […] Similar calculations are utilized for solvent systems containing three or more solvents.

CS(=O)(=O)c1ccc(C2=C(c3ccccc3)C(=O)OC2)cc1 [Rofecoxib]
% Change (observed vs expected solubility) (in DI + PGD): 123.9%
Expected Solubility (in DI + PGD): 23.04 mg/g
Observed Solubility (in DI + PGD): 28.54 mg/g
% Change (observed vs expected solubility) (in EA + AC): 79.1%
Expected Solubility (in EA + AC): 14.52 mg/g
Observed Solubility (in EA + AC): 11.49 mg/g
% Change (observed vs expected solubility) (in EA + AT): 82.6%
Expected Solubility (in EA + AT): 2.91 mg/g
Observed Solubility (in EA + AT): 2.40 mg/g
% Change (observed vs expected solubility) (in EA + BA): 94.1%
Expected Solubility (in EA + BA): 12.52 mg/g
Observed Solubility (in EA + BA): 11.78 mg/g
% Change (observed vs expected solubility) (in EA + DGME): 55.4%
Expected Solubility (in EA + DGME): 7.29 mg/g
Observed Solubility (in EA + DGME): 4.04 mg/g
% Change (observed vs expected solubility) (in EA + DI): 62.0%
Expected Solubility (in EA + DI): 22.32 mg/g
Observed Solubility (in EA + DI): 13.84 mg/g
% Change (observed vs expected solubility) (in EA + DIA): 85.7%
Expected Solubility (in EA + DIA): 3.77 mg/g
Observed Solubility (in EA + DIA): 3.23 mg/g
% Change (observed vs expected solubility) (in EA + DMSO): 122.9%
Expected Solubility (in EA + DMSO): 74.55 mg/g
Observed Solubility (in EA + DMSO): 91.63 mg/g
% Change (observed vs expected solubility) (in EA + DS): 88.0%
Expected Solubility (in EA + DS): 3.67 mg/g
Observed Solubility (in EA + DS): 3.22 mg/g
% Change (observed vs expected solubility) (in EA + IPTD): 41.5%
Expected Solubility (in EA + IPTD): 2.75 mg/g
Observed Solubility (in EA + IPTD): 1.14 mg/g
% Change (observed vs expected solubility) (in EA + M24D): 110.4%
Expected Solubility (in EA + M24D): 3.05 mg/g
Observed Solubility (in EA + M24D): 3.36 mg/g
% Change (observed vs expected solubility) (in EA + MP): 75.3%
Expected Solubility (in EA + MP): 101.75 mg/g
Observed Solubility (in EA + MP): 76.59 mg/g
% Change (observed vs expected solubility) (in EA + OA): 38.5%
Expected Solubility (in EA + OA): 2.95 mg/g
Observed Solubility (in EA + OA): 1.14 mg/g
% Change (observed vs expected solubility) (in EA + PC): 103.9%
Expected Solubility (in EA + PC): 27.47 mg/g
Observed Solubility (in EA + PC): 28.53 mg/g
% Change (observed vs expected solubility) (in EA + PEG): 120.0%
Expected Solubility (in EA + PEG): 9.32 mg/g
Observed Solubility (in EA + PEG): 11.19 mg/g
% Change (observed vs expected solubility) (in EA + PGD): 109.1% and 100.3%
Expected Solubility (in EA + PGD): 6.22 mg/g
Observed Solubility (in EA + PGD): 6.78 mg/g and 6.23 mg/g
% Change (observed vs expected solubility) (in EA + PPG): 156.1%
Expected Solubility (in EA + PPG): 2.90 mg/g
Observed Solubility (in EA + PPG): 4.53 mg/g
% Change (observed vs expected solubility) (in EA + PS20): 107.9%
Expected Solubility (in EA + PS20): 7.34 mg/g
Observed Solubility (in EA + PS20): 7.92 mg/g
% Change (observed vs expected solubility) (in EA + PS80): 105.8%
Expected Solubility (in EA + PS80): 7.61 mg/g
Observed Solubility (in EA + PS80): 8.05 mg/g
% Change (observed vs expected solubility) (in MP + EA): 71.4%
Expected Solubility (in MP + EA): 107.75 mg/g
Observed Solubility (in MP + EA): 76.89 mg/g
% Change (observed vs expected solubility) (in MP + PEG + PGD): 35.17%
Expected Solubility (in MP + PEG + PGD): 72.69 mg/g
Expected Solubility (in PC + AC): 36.48 mg/g and 36.5 mg/g
% Change (observed vs expected solubility) (in PC + AC + MP): 34.18%
Expected Solubility (in PC + AC + MP): 90.34 mg/g
% Change (observed vs expected solubility) (in PC + AC + PEG): 123.74%
Expected Solubility (in PC + AC + PEG): 28.72 mg/g
Observed Solubility (in PC + AC + PEG): 35.53 mg/g
% Change (observed vs expected solubility) (in PC + AC + PGD): 200.59% and 129.71% and 114.18%
Expected Solubility (in PC + AC + PGD): 26.65 mg/g
Observed Solubility (in PC + AC + PGD): 53.45 mg/g and 34.56 mg/g
% Change (observed vs expected solubility) (in PC + BA): 99.3%
Expected Solubility (in PC + BA): 34.49 mg/g
Observed Solubility (in PC + BA): 34.26 mg/g
% Change (observed vs expected solubility) (in PC + BA + AC): 134.75%
Expected Solubility (in PC + BA + AC): 30.85 mg/g
Observed Solubility (in PC + BA + AC): 41.57 mg/g
% Change (observed vs expected solubility) (in PC + BA + DMSO): 85.64%
Expected Solubility (in PC + BA + DMSO): 70.86 mg/g
% Change (observed vs expected solubility) (in PC + BA + MP): 21.30%
Expected Solubility (in PC + BA + MP): 88.99 mg/g
% Change (observed vs expected solubility) (in PC + BA + PEG): 63.48%
Expected Solubility (in PC + BA + PEG): 27.37 mg/g
% Change (observed vs expected solubility) (in PC + BA + PGD): 84.91%
Expected Solubility (in PC + BA + PGD): 25.30 mg/g
% Change (observed vs expected solubility) (in PC + MP): 69.3%
Expected Solubility (in PC + MP): 123.72 mg/g
Observed Solubility (in PC + MP): 85.76 mg/g
% Change (observed vs expected solubility) (in PC + MP + PEG): 46.39%
Expected Solubility (in PC + MP + PEG): 86.86 mg/g
% Change (observed vs expected solubility) (in PC + MP + PGD): 21.70%
Expected Solubility (in PC + MP + PGD): 84.79 mg/g
% Change (observed vs expected solubility) (in PC + PEG + PGD): 153.76%
Expected Solubility (in PC + PEG + PGD): 23.17 mg/g
Observed Solubility (in PC + PEG + PGD): 35.62 mg/g
% Change (observed vs expected solubility) (in PC + PGD): 123.0% and 97.8%
Expected Solubility (in PC + PGD): 28.18 mg/g
Observed Solubility (in PC + PGD): 34.66 mg/g and 27.55 mg/g
% Change (observed vs expected solubility) (in PEG + DGME): 119.7%
Expected Solubility (in PEG + DGME): 11.11 mg/g
Observed Solubility (in PEG + DGME): 13.30 mg/g
% Change (observed vs expected solubility) (in PEG + EA): 150.3%
Expected Solubility (in PEG + EA): 9.32 mg/g
Observed Solubility (in PEG + EA): 14.00 mg/g
% Change (observed vs expected solubility) (in PEG + PGD): 124.5% and 120.8%
Expected Solubility (in PEG + PGD): 10.04 mg/g
Observed Solubility (in PEG + PGD): 12.50 mg/g and 12.13 mg/g
